What was measured:
intestinal musculature = settings: some cases; product withdrawn December 2000; cited from earlier work
[1] = system: excised animal uterus tissue; settings: cited from earlier work; for action on the uterus: in vitro, excised animal uterus tissue
[2] = cited from earlier work
[3] = system: Food-Sensitive Interstitial Cystitis Patients; settings: cited from earlier work
[4] = system: Interstitial Cystitis Symptoms; settings: key exacerbant foods and beverages; cited from earlier work
Interstitial Cystitis = settings: ICSG members; cited from earlier work
astrocytes and neurons = settings: culture; cited from earlier work
[5] = system: IBS-related symptoms and conditions; experiment: 'pre-study' IBS survey of patients taking CGP tablets for 28 days; type: in vivo, human
From the text: A ‘pre-study’ IBS survey was taken in a large private gastroenterology practice in southern New Jersey. Each of the patients in the survey consumed a series of 2-tablet doses of CGP, in which each tablet contained 0.335 grams CGP so that each dosage was 0.67 gram of CGP. Two tablets were consumed at breakfast, lunch, and dinner, regardless of the acidity of the foods consumed at the meals, and two additional tablets were consumed with any snack eaten during the day, regardless of the acidity of the snack. The total consumption by each patient varied from 8-10 tablets per day up to 20 tablets per day.
The survey included twelve patients, eight of whom completed graphs of their 28-day experience with CGP. The experiences of the four remaining patients were written up by the medical supervisor based on oral reports. […] The patients marked daily, in 10% increments and 10% decrements, whether they felt up to 100% better or down to 100% worse as a result of the treatment.

## Cc1[nH]cnc1CN1CCc2c(c3ccccc3n2C)C1=O [Lotronex]
Intestinal musculature
  adverse events in use: intestinal ischemic collapse

## O=P([O-])([O-])OCC(O)CO.[Mg+2] (stereo not drawn) [magnesium glycerophosphate]
[1]
  anti-spasmodic behavior on the intestine: exclude the intestine
  action on the uterus: uterine anti-spasmodic agents

## O=C([O-])[O-].[Ca+2] [calcium carbonate, reference compound]
[2]; estimated, only in an acidic milieu
  time after ingestion until calcium is released: 20 to 30 min

## O=P([O-])([O-])OC(CO)CO.[Na+].[Na+] [sodium glycerophosphate, Sodium Beta-Glycerophosphate]
[1]
  anti-spasmodic behavior on the intestine: exclude the intestine
  action on the uterus: uterine anti-spasmodic agents

## O=P([O-])([O-])OCC(O)CO.[Ca+2] (stereo not drawn) [CGP, 1,2,3-propanetriol, mono(dihydrogen phosphate) calcium salt (1:1)]
[3]; decreased from 76.7%
  pain as a result of consuming CGP: 41%
[3]; decreased from 79.5%
  urinary urgency as a result of consuming CGP: 51%
[4]
  patients reported a reduction in [urinary] urgency: 61.3%
  patients reported a reduction in pain and discomfort: 70.4%
Interstitial Cystitis
  participants enabled to tolerate a wider variety of foods of an acidic nature: 81%
  participants found it to be beneficial: 69%
Astrocytes and neurons
  effect on astrocytes in vitro: enhance the proliferation and differentiation of astrocytes
  effect on neurons compared with calcium chloride and non-reagent added media: significant survival effects
[2]; regardless of the pH level in the stomach
  dissociation of calcium from the anion: instantly dissociated
[5]; patients without graphs, one of four discontinued
  oral reports to the medical supervisor: helpful and effective at relieving symptoms and/or pain
[5]; self-rated daily graph
  effect on pain and/or symptoms in two of the eight patients who completed graphs (flatliners): no effect
[5]; self-rated daily graph, some going to 100% improvement and maintaining that level
  results of the remaining six patients who completed graphs: good to remarkable
[5]; single patients, one value each
  drop on the self-rated scale on the day without CGP: 10-20% and “50% better” to “50% worse” and “100% better” to “40% worse.”
[5]; three patients, returned to improved state upon resuming treatment
  condition on the one day on which CGP was not ingested: marked condition deterioration
[5]; twelve patients, oral 0.67 gram per dose with meals and snacks, 28 days
  patients showed major improvements in IBS-related symptoms and conditions: 75%

From patent US20050130938A1, “Method for alleviating syndromes and conditions of discomfort of the mammalian intestinal and genito-urinary tracts” (AkPharma Inc., priority 2001, published 2005)
